These results are taken from patent publication US5981559A, “Azole derivative with leukotriene (LTs) antagonizing activity and thromboxane (TX) A2 antagonizing activity” (Yamanouchi Pharmaceutical Co., Ltd., priority 1994, dated 1999).

For assay [1], the system named is ileal contraction by LTD4. The assay can be described thus: Inhibition of ileal contraction by LTD4 in guinea pig (Test (2)). Details: species or system guinea pig (male Hartley). As to conditions: guinea pig ileum, LTD4 10^-9 M; compound incubation 20 minutes. How it is done:
(2) Test Method for the Inhibition of Ileal Contraction by LTD4 in Guinea Pig
A male Hartley guinea pig of 500 to 700 g in body weight was sacrificed by head blow. The ileum was set in a Magnus vessel containing 10 ml of Tyrode solution aerated with a 95% O2 +5% CO2 mixture gas at a tension of 1.0 g. The tension generated by the tissue was isometrically measured using a threton gage transducer. Ileal contraction reaction against LTD4 (10^-9 M) was measured in the absence of the compound and then in the presence of the test compound in varied concentrations. Incubation time of the compound was set to 20 minutes.

The test system of assay [2] is platelet aggregation induced by U-46619 (stable analog of TXA2). Kind of assay: Inhibition of platelet aggregation induced by U-46619 (Test (1)). The assay is classed as cell-based, guinea pig (male Hartley). To be noted: Cavia porcellus; guinea pig PRP, platelet count 500,000/μl; compound added 2 minutes before U-46619. How it is done:
(1) Test Method for the Inhibition of Platelet Aggregation Induced by U-46619
Using a plastic syringe containing 1 volume of 3.8% sodium citrate aqueous solution, 9 volumes of blood was collected from the abdominal aorta of a male Hartley guinea pig of about 800 g in body weight. Platelet rich plasma (PRP) was obtained by subjecting the blood to 10 minutes of centrifugation at 270×g, and the remaining blood was further centrifuged at 1,100×g for 10 minutes to give platelet poor plasma (PPP). The PRP was diluted with PPP to control the platelet count to 500,000/μl, and platelet aggregation by a stable analog of TXA2, U-46619 (a chemical name: 9,11-dideoxy-9α,11α-methanoepoxy-prostaglandin F2 α), was measured in accordance with the method of Bone and Cross (Journal of Physiology, vol.168, pp.178-195, 1963).
That is, changes in the light transmittance of PRP by U-46619 (10^-6 […]) was measured using NBS Hematracer. The compound was added 2 minutes before the addition of U-46619, and the IC50 value (50% inhibition concentration) was calculated from the inhibition ratio based on the maximum light transmittance by U-46619.

Assay [3] relates to U-46619 induced airway resistance increase. Kind of assay: Inhibition of U-46619 induced airway resistance increase in guinea pig by oral administration (Test (3)). The format is in vivo, guinea pig (male Hartley). As to conditions: 10 mg/kg oral, 1 hour before U-46619 (3 μg/kg i.v.). How it is done:
(3) Test Method for the Inhibition of U-46619 Induced Airway Resistance Increase in Guinea Pig by Oral Administration of Compounds
A male Hartley guinea pig (500 to 800 g) was anesthetized with urethane (1.2 g/kg, i.p.) and fixed on the back to insert a tracheal cannula. Spontaneous respiration was stopped with gallamine (1 mg/kg, i.v.) and artificial respiration was carried out at a rate of 60 strokes/min, volume 1 ml/100 g body weight/cycle. After total jugular intravenous administration of U-46619 (3 μg/kg), the increasing airway resistance was measured by a respiration function measuring apparatus (Model 6, Buxco Electronics Inc.). In this case, test compound was orally administered 1 hour before the administration of U-46619, as a dimethyl sulfoxide solution or as a methyl cellulose suspension.
The results were calculated as the inhibition ratio of airway resistance at the time of the administration of 10 mg/kg of the compound.

For assay [4], the system named is LTD4-induced vascular permeability acceleration. Kind of assay: Inhibition of LTD4-induced vascular permeability acceleration by oral administration (Test (4)). The format is in vivo, guinea pig (male Hartley). To be noted: 10 mg/kg oral, 1 hour before LTD4 (5 ng/site intracutaneous); dimethyl sulfoxide solution (DMSO). How it is done: (4) Test Method for the Inhibition of LTD4 -Induced Vascular Permeability Acceleration by Oral Administration of Compounds
A male Hartley guinea pig whose dorsal hair had been cut on the day before the test was subjected to intravenous administration of 1% Evans blue aqueous solution (1 ml/animal). Two minutes thereafter, LTD4 (5 ng/site) was administered inside the dorsal skin of the guinea pig, and the guinea pig was sacrificed by decapitation 30 minutes thereafter. The skin where intracutaneous injection of LTD4 was carried out was collected, and the pigment leaked into the skin was extracted. Amount of the leaked pigment was calculated by measuring its absorbance at 620 nm and used as the index of vascular permeability. The test compound was orally administered as a dimethyl sulfoxide solution 1 hour before the intracutaneous administration of LTD4. The results were calculated as the inhibition ratio at the time of the administration of 10 mg/kg of the compound.

The mark [5] stands for this setting: dimethyl sulfoxide solution (DMSO).

SMILES strings stand for the structures.

Consider `CC(C)(C)c1csc(COc2cccc(C(=O)Nc3cc(CCCS(=O)(=O)c4ccc(Cl)cc4)ccc3OCC(=O)O)c2)n1` [Example 13, 2-[3-[(4-tert-Butyl-2-thiazolyl)methoxy]benzoylamino]-4-[3-(4-chlorophenylsulfonyl)propyl]phenoxyacetic acid], for which the IC50 (in general, the concentration that gives 50% inhibition) turned out to be 0.45 nM in assay [1] and 55 nM in assay [2].

For `O=C(Nc1cc(CCCS(=O)(=O)c2ccc(Cl)cc2)ccc1OCc1nnn[nH]1)c1cccc(OCc2nc3ccccc3s2)c1` [Example 111, 3-(2-benzothiazolylmethoxy)-5'-[3-(4-chlorophenylsulfonyl)propyl]-2'-(1H-tetrazol-5-ylmethoxy)benzanilide], the figures for the IC50 in assay [1] and in assay [2] were 0.26 nM and 380 nM, respectively.

As for `O=C(Nc1cc(CCCS(=O)(=O)c2ccc(Cl)cc2)ccc1OCc1nnn[nH]1)c1cccc(OCc2nc(C3CCC3)cs2)c1` [Example 74, 5'-[3-(4-Chlorophenylsulfonyl)propyl]-3-[(4-cyclobutyl-2-thiazolyl)methoxy]-2'-(1H-tetrazol-5-ylmethoxy)benzanilide], the IC50 in assay [1] amounted to 0.24 nM; in assay [2], 540 nM.

`Cc1oc(=O)oc1COC(=O)COc1ccc(CCCS(=O)(=O)c2ccc(Cl)cc2)cc1NC(=O)c1cccc(OCc2nc(C(C)(C)C)cs2)c1` [Example 42, (5-methyl-2-oxo-1,3-dioxol-4-yl)methyl=2-[3-[(4-tert-butyl-2-thiazolyl)methoxy]benzoylamino]-4-[3-(4-chlorophenylsulfonyl)propyl]phenoxyacetic acid]: the IC50 was 0.93 nM in assay [1] and 420 nM in assay [2].

As for `CC(C)(C)c1csc(COc2cccc(C(=O)Nc3cc(CCCS(=O)(=O)c4ccc(Cl)cc4)ccc3OC(F)C(=O)O)c2)n1` (centres unmarked) [Example 79, 2-[2-[3-[(4-tert-butyl-2-thiazolyl)methoxy]benzoylamino]-4-[3-(4-chlorophenylsulfonyl)propyl]phenoxy]-2-fluoroacetic acid hydrate], the half-maximal inhibitory concentration (IC50) in assay [1] was found to be 4.2 nM; in assay [2], 890 nM.

For the compound `O=C(O)COc1ccc(CCCS(=O)(=O)c2ccc(Cl)cc2)cc1NC(=O)c1cccc(OCc2nc(C3CCCCC3)cs2)c1` [Example 29, 4-[3-(4-Chlorophenylsulfonyl)propyl]-2-[3-[(4-cyclohexyl-2-thiazolyl)methoxy]benzoylamino]phenoxyacetic acid], the IC50 in assay [1] was 0.61 nM; in assay [2], 110 nM.

Turning to `O=C(O)COc1ccc(CCCS(=O)(=O)c2ccc(Cl)cc2)cc1NC(=O)c1cccc(OCc2ccc3ccccc3n2)c1` [Comparative compound], the entries for the “Test (3) Inhibition ratio” value in assay [3] (setting [5]) and in assay [3] (methyl cellulose suspension (MC)) were 27% and 21%, respectively. Further, in assay [4], the “Test (4) Inhibition ratio” value is given as 35%.

`CS(=O)(=O)NC(=O)COc1ccc(CCCS(=O)(=O)c2ccc(Cl)cc2)cc1NC(=O)c1cccc(OCc2nc3ccccc3s2)c1` [Example 107, 2-[2-[3-(2-benzothiazolylmethoxy)benzoylamino]-4-[3-(4-chlorophenylsulfonyl)propyl]phenoxy]-N-(methanesulfonyl)acetamide 0.5 hydrate]: the half-maximal inhibitory concentration (IC50) was found to be 3.7 nM in assay [1] and 670 nM in assay [2].

In the case of `CC(C)(C)c1csc(CSc2cccc(C(=O)Nc3cc(CCCS(=O)(=O)c4ccc(Cl)cc4)ccc3OCC(=O)O)c2)n1` [Example 27, 2-[3-[(4-tert-Butyl-2-thiazolyl)methylthio]benzoylamino]-4-[3-(4-chlorophenylsulfonyl)propyl]phenoxyacetic acid], the IC50 turned out to be 0.67 nM in assay [1] and 210 nM in assay [2].

Take `O=C(O)CNC(=O)COc1ccc(CCCS(=O)(=O)c2ccc(Cl)cc2)cc1NC(=O)c1cccc(OCc2nc3ccccc3s2)c1` [Example 106, N-[[2-[3-(2-Benzothiazolylmethoxy)benzoylamino]-4-[3-(4-chlorophenylsulfonyl)propyl]phenoxy]acetyl]glycine]: the IC50 in assay [1] turned out to be 0.92 nM; in assay [2], 1200 nM.

Regarding `CC(C)(C)c1csc(CCc2cccc(C(=O)Nc3cc(CCCS(=O)(=O)c4ccc(Cl)cc4)ccc3OCC(=O)O)c2)n1` [Example 28, 2-[3-[2-(4-tert-Butyl-2-thiazolyl)ethyl]benzoylamino]-4-[3-(4-chlorophenylsulfonyl)propyl]phenoxyacetic acid], the half-maximal inhibitory concentration (IC50) was 0.98 nM in assay [1] and 74 nM in assay [2].

Regarding `CCOC(=O)COc1ccc(CCCS(=O)(=O)c2ccc(Cl)cc2)cc1NC(=O)c1cccc(OCc2nc(C(C)(C)C)cs2)c1` [Example 6, Ethyl 2-[3-[(4-tert-butyl-2-thiazolyl)methoxy]benzoylamino]-4-[3-(4-chlorophenylsulfonyl)propyl]phenoxyacetate], the values for the IC50 in assay [1] and in assay [2] were 0.81 nM and 450 nM, respectively.

Turning to `CCOC(=O)COc1ccc(CCCS(=O)(=O)c2ccc(Cl)cc2)cc1NC(=O)c1cccc(OCc2nc(C3CC3)cs2)c1` [Example 15, Ethyl 4-[3-(4-chlorophenylsulfonyl)propyl]-2-[3-[(4-cyclopropyl-2-thiazolyl]methoxy]benzoylamino]phenoxyacetate], the IC50 in assay [1] was 0.85 nM; in assay [2] it was 63 nM.

Regarding `O=C(O)COc1ccc(CCCS(=O)(=O)c2ccc(Cl)cc2)cc1NC(=O)c1cccc(OCc2nc(C3CC3)cs2)c1` [Example 26, 4-[3-(4-Chlorophenylsulfonyl)propyl]-2-[3-[(4-cyclopropyl-2-thiazolyl)methoxy]benzoylamino]phenoxyacetic acid], the concentration for half-maximal inhibition (IC50) in assay [1] is 0.54 nM; in assay [2], 79 nM.

With `CC(C)(C)c1csc(COc2cccc(C(=O)Nc3cc(CCCS(=O)(=O)c4ccc(Cl)cc4)ccc3OCc3nnn[nH]3)c2)n1` [Example 39, 3-[(4-tert-Butyl-2-thiazolyl)methoxy]-5'-[3-(4-chlorophenylsulfonyl)propyl]-2'-(1H-tetrazol-5-ylmethoxy)benzanilide], the IC50 in assay [1] worked out at 0.57 nM; in assay [2] it was 220 nM.

As to `O=C(O)COc1ccc(CCCS(=O)(=O)c2ccc(Cl)cc2)cc1NC(=O)c1cccc(OCc2nc(C3CCC3)cs2)c1` [Example 31, 4-[3-(4-Chlorophenylsulfonyl)propyl]-2-[3-[(4-cyclobutyl-2-thiazolyl)methoxy]benzoylamino]phenoxyacetic acid], the IC50 in assay [1] is 0.28 nM; in assay [2], 130 nM. In addition, in assay [3] (setting [5]), the “Test (3) Inhibition ratio” value was 72%. Moreover, the “Test (4) Inhibition ratio” value in assay [4] amounted to 40%.
